Our source for the TGI and GI50 values is PubChem BioAssay (NCI).

Some test systems named below: HCT-116 colon; HT29 colon; BT-549 breast; SF-295 CNS; MOLT-4 leukemia; OVCAR-5 ovarian; NCI/ADR-RES ovarian; LOX IMVI melanoma.
What all share (assay): DTP human tumour cell line panel, 48 h

Molecules are shown by their SMILES. “And” between values parts separate entries of the source, which are not always exact repeats. Equal entries are not always repeated.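 Each compound was tested at five concentrations against cells in 96-well plates for 48 hours. Abbreviation: GI50, concentration required for 50% inhibition of growth. Definition used: TGI = concentration required for complete inhibition of growth.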

As for `CC(=O)[C@@]1(O)CC[C@H]2[C@@H]3C[C@H](C)C4=CC(=O)CC[C@]4(C)[C@H]3[C@@H](O)C[C@@]21C`, the TGI with HCT-116 colon, with HT29 colon, in the assay on BT-549 breast, in the assay on SF-295 CNS, in the assay with MOLT-4 leukemia and with OVCAR-5 ovarian was greater than 100 µM in each case. The TGI with NCI/ADR-RES ovarian and with LOX IMVI melanoma was greater than 100 µM each time.
Take `COC(=O)c1c2c(c(C)[n+]([O-])c1C)C(=O)C=C(NCc1ccc(F)c(Cl)c1)C2=O`: the GI50 – broadly, the concentration that inhibits growth by half – is 0.13 µM in the assay with HCT-116 colon; 0.243 µM in the assay on HT29 colon; 1.01 µM in the assay on BT-549 breast; 0.231 µM in the assay on SF-295 CNS; 0.404 µM in the assay with MOLT-4 leukemia; 1.16 µM in the assay on OVCAR-5 ovarian. The GI50 was 0.265 µM in the assay on NCI/ADR-RES ovarian and 0.0258 µM with LOX IMVI melanoma. Besides, the TGI (in general, the concentration giving total growth inhibition) in the assay on HCT-116 colon stood at 1.03 µM; in the assay on HT29 colon it was 2.15 µM; in the assay on BT-549 breast, 2.43 µM; in the assay on SF-295 CNS, 1.48 µM; in the assay on MOLT-4 leukemia, 2.19 µM; with OVCAR-5 ovarian it was 2.69 µM. Also, the TGI with NCI/ADR-RES ovarian stood at 1.63 µM; in the assay on LOX IMVI melanoma, 1.35 µM.
As for `O=C1NC(O)C(c2c[nH]c3ccccc23)=C1c1c[nH]c2ccccc12` (stereo not drawn), the GI50 in the assay on HCT-116 colon, in the assay with HT29 colon, in the assay with BT-549 breast, in the assay with SF-295 CNS, in the assay on MOLT-4 leukemia and with OVCAR-5 ovarian was greater than 25 µM each time. In addition, the GI50 in the assay with NCI/ADR-RES ovarian is greater than 25 µM; with LOX IMVI melanoma it was greater than 22.5 µM. Further, the total growth inhibition concentration (TGI) with HCT-116 colon, with HT29 colon, in the assay on BT-549 breast, in the assay with SF-295 CNS, with MOLT-4 leukemia and in the assay with OVCAR-5 ovarian was greater than 25 µM in each case. Further, the TGI in the assay on NCI/ADR-RES ovarian and in the assay on LOX IMVI melanoma was greater than 25 µM each time.
Take `COc1cc2cc(Oc3ccc(NC(=O)Nc4cccc(C(F)(F)F)c4)cc3)c(C)nc2cc1OC`: the GI50 in the assay on HCT-116 colon is 1.46 µM; in the assay with HT29 colon, 2.05 µM; in the assay on BT-549 breast it was 1.43 µM; in the assay with SF-295 CNS, 1.13 µM; in the assay on MOLT-4 leukemia it was 1.55 µM; with OVCAR-5 ovarian, 3.02 µM. Also, the GI50 was 1.71 µM with NCI/ADR-RES ovarian and 1.84 µM in the assay with LOX IMVI melanoma. Besides, the TGI was 5.84 µM in the assay on HCT-116 colon; 6.26 µM in the assay with HT29 colon; 6.18 µM in the assay with BT-549 breast; 3.59 µM in the assay on SF-295 CNS; 6.87 µM with MOLT-4 leukemia; 13 µM in the assay on OVCAR-5 ovarian. The total growth inhibition concentration (TGI) with NCI/ADR-RES ovarian was 7.19 µM; with LOX IMVI melanoma, 6.61 µM.
In the case of `COc1c(OC)c(OC)c2c(c1OC)c(=O)c1ccccc1n2C`, the TGI with HCT-116 colon, with HT29 colon, in the assay with BT-549 breast, with SF-295 CNS, with MOLT-4 leukemia and in the assay on OVCAR-5 ovarian was greater than 100 µM throughout. For the same compound, the TGI with NCI/ADR-RES ovarian and in the assay on LOX IMVI melanoma was greater than 100 µM in each case.
As to `COc1ncc(-c2ccc3nccc(-c4ccnnc4)c3c2)cc1NS(=O)(=O)c1ccc(F)cc1F`, the GI50 is 0.0155 µM in the assay on HCT-116 colon; 0.00325 µM and < 0.01 µM in the assay on HT29 colon; 0.00392 µM and < 0.01 µM with BT-549 breast; 0.00537 µM and < 0.01 µM in the assay with SF-295 CNS; 0.00505 µM and < 0.01 µM in the assay with MOLT-4 leukemia; 0.00728 µM and < 0.01 µM in the assay on OVCAR-5 ovarian. Further, the GI50 is 0.0228 µM and 0.0246 µM in the assay on NCI/ADR-RES ovarian; 0.00758 µM and < 0.0106 µM in the assay on LOX IMVI melanoma. Besides, the TGI was 2.31 µM and 1.55 µM in the assay on HCT-116 colon; > 10 µM and 4.25 µM in the assay on HT29 colon; 0.0688 µM and 0.0434 µM in the assay on BT-549 breast; 0.0595 µM and 0.0299 µM in the assay on SF-295 CNS; 0.801 µM and 0.579 µM with MOLT-4 leukemia; > 10 µM and 2.76 µM in the assay on OVCAR-5 ovarian. Moreover, the TGI in the assay on NCI/ADR-RES ovarian is > 8.81 µM and 4.37 µM; with LOX IMVI melanoma, 1.12 µM and 1.26 µM.
`O=C(c1ccco1)c1nc2cc(Cl)ccc2[n+]([O-])c1C(F)(F)F`: the GI50 in the assay on HCT-116 colon was 40.6 µM; in the assay with HT29 colon, 52.9 µM; with BT-549 breast, 35.1 µM; in the assay with SF-295 CNS, 94 µM; with MOLT-4 leukemia, 27.1 µM; in the assay on OVCAR-5 ovarian it was greater than 100 µM. Besides, the GI50 is 52.4 µM with NCI/ADR-RES ovarian and 48.4 µM with LOX IMVI melanoma. For the same compound, the TGI with HCT-116 colon was greater than 100 µM; in the assay with HT29 colon, greater than 100 µM; in the assay with BT-549 breast, greater than 100 µM; in the assay with SF-295 CNS it was greater than 100 µM; in the assay with MOLT-4 leukemia, 66.6 µM; in the assay with OVCAR-5 ovarian, greater than 100 µM. The TGI with NCI/ADR-RES ovarian and in the assay on LOX IMVI melanoma was greater than 100 µM each time.
Consider `CC[C@H](Nc1nc(NCc2cnc(C)cc2C)c2ncn(C(C)C)c2n1)[C@@H](C)O`, for which the GI50 with HCT-116 colon is 0.314 µM; in the assay on HT29 colon, 0.331 µM; in the assay on BT-549 breast, 0.226 µM; in the assay with SF-295 CNS it was 0.298 µM; with MOLT-4 leukemia, 0.339 µM; with OVCAR-5 ovarian, 0.282 µM. Further, the results for the GI50 in the assay with NCI/ADR-RES ovarian and in the assay with LOX IMVI melanoma were 1.97 µM and 0.252 µM, respectively. Besides, the TGI in the assay with HCT-116 colon is greater than 100 µM; with HT29 colon, greater than 100 µM; in the assay on BT-549 breast, 0.8 µM; in the assay on MOLT-4 leukemia it was greater than 100 µM; in the assay on OVCAR-5 ovarian, greater than 100 µM; in the assay with NCI/ADR-RES ovarian it was greater than 31 µM. The same compound displayed a TGI in the assay with LOX IMVI melanoma greater than 67.5 µM.
For the compound `O=c1c2ccccc2n(C[C@H]2CO2)c2ccccc12`, the GI50 was 1.12 µM in the assay with HCT-116 colon; 2.24 µM in the assay with HT29 colon; 1.91 µM in the assay with BT-549 breast; 2.91 µM in the assay with SF-295 CNS; 0.29 µM in the assay on MOLT-4 leukemia; 2.44 µM in the assay on OVCAR-5 ovarian. In addition, the figures for the GI50 with NCI/ADR-RES ovarian and with LOX IMVI melanoma were 1.7 µM and 1.51 µM, respectively. For the same compound, the TGI is 8.78 µM with HCT-116 colon; 7.91 µM in the assay on HT29 colon; 6.08 µM in the assay with BT-549 breast; 9.44 µM in the assay with SF-295 CNS; 2.35 µM in the assay on MOLT-4 leukemia; 6.41 µM in the assay with OVCAR-5 ovarian. In addition, the TGI is 6.25 µM in the assay on NCI/ADR-RES ovarian and 3.15 µM in the assay with LOX IMVI melanoma.
In the case of `Cc1c(-c2c(-c3ccc(F)o3)sc3ncnc(O[C@H](Cc4ccccc4OCc4ccnn4CC(F)(F)F)C(=O)O)c23)ccc(OCCN2CCN(C)CC2)c1Cl`, the GI50 is 3.9 µM in the assay on HCT-116 colon; 4.54 µM with HT29 colon; 2.13 µM in the assay with BT-549 breast; 3.55 µM in the assay on SF-295 CNS; 0.108 µM in the assay on MOLT-4 leukemia; 4.81 µM with OVCAR-5 ovarian. Also, the figures for the GI50 in the assay on NCI/ADR-RES ovarian and in the assay with LOX IMVI melanoma were 15.5 µM and 3.03 µM, respectively. Moreover, the TGI came out at 9.23 µM with HCT-116 colon; 9.41 µM with HT29 colon; 5.65 µM in the assay with BT-549 breast; 7.55 µM in the assay on SF-295 CNS; 4.71 µM with MOLT-4 leukemia; 14.8 µM in the assay with OVCAR-5 ovarian. Besides, the TGI in the assay with NCI/ADR-RES ovarian stood at 33.4 µM; with LOX IMVI melanoma, 6.8 µM.
